This is an account of results in patent US7511013B2, “Cyclosporin analogues and their pharmaceutical uses” (AMR Technology, Inc., priority 2004, dated 2009).

*1 amine or outer side, *2 acyl side, *3 side chain or, on linkers, in order; H or OH if unused. Where a SMILES comes first, the peptide text is derived from it. [ ]: non-standard residue; d: D form. X1 = C=C/C=C/C[C@@H](C)[C@@H](O)[C@@H](C(=O)[*:2])N(C)[*:1]; X3 = C[C@H](C/C=C/Cl)[C@@H](O)[C@@H](C(=O)[*:2])N(C)[*:1]; X2 = C[C@H](C/C=C/I)[C@@H](O)[C@@H](C(=O)[*:2])N(C)[*:1]; NMeL = CN[C@@H](CC(C)C)C(=O)O; NMeV = CN[C@H](C(=O)O)C(C)C; dNMeS = CN[C@H](CO)C(=O)O; Abu = CC[C@H](N)C(=O)O

The assay concerns concanavalin A-stimulated splenocytes. Description: Concanavalin A-stimulated splenocyte assay ([3H]thymidine incorporation). In kind it is cell-based, BALB/c mice. To be noted: for potency in immunosuppression compared to cyclosporin A: FIG. 1, concanavalin A stimulated splenocyte assay. The protocol: Male BALB/c mice, at 5 to 7 weeks of age, were sacrificed by CO2 inhalation. Spleens were removed and dissociated by pushing through a nylon cell strainer. The splenocytes were washed in RPMI 1640/5% fetal calf serum (FCS) and pelleted at 400×g. Red blood cells were then lysed by resuspending the cell pellet in ACK lysis buffer (150 mM NH4Cl, 1 mM KHCO3, 0.1 mM EDTA, 3 mL per spleen) for 10 min at room temperature. After pelleting at 400×g, the cells were washed by resuspending in RPMI 1640/5% FCS and repelleting. The cell pellet was resuspended in RPMI 1640/5% FCS and again passed through a cell strainer to remove cell aggregates. The cells were then counted and adjusted to 2×10^6 cells/ml in RPMI 1640/10% FCS/50 μM 2-mercaptoethanol. Cell viability was assessed by Trypan blue staining. […] The cells were cultured in a 37° C. CO2 incubator for 2 days and then pulsed with 1 μCi of [^3H]thymidine for 6 hours. Cells were harvested onto filtermats with a TomTec 96 well plate harvester and lysed with H2O. The filtermat and scintillation fluid were sealed in a plastic sleeve. [^3H]thymidine incorporation was measured with a Wallac Trilux plate counter. Initial screens were done at a fixed value of 100 ng/ml test compound. IC50s were calculated from 7 point concentration-response curves using GraphPad software.

Take `C=C/C=C/C[C@@H](C)[C@@H](O)[C@H]1C(=O)N[C@@H](CC)C(=O)N(C)[C@H](CO)C(=O)N(C)[C@@H](CC(C)C)C(=O)N[C@@H](C(C)C)C(=O)N(C)[C@@H](CC(C)C)C(=O)N[C@@H](C)C(=O)N[C@H](C)C(=O)N(C)[C@@H](CC(C)C)C(=O)N(C)[C@@H](CC(C)C)C(=O)N(C)[C@@H](C(C)C)C(=O)N1C` [Example 67, trans-cyclosporin diene] (cyclo([X1][Abu][dNMeS][NMeL]V[NMeL]A[dA][NMeL][NMeL][NMeV])): the “IC50 (ng/mL), immunosuppressive activity of novel cyclosporin analogue compound” value (“IC50 … of novel cyclosporin analogue compound” below) was determined as 7 ng/mL.
Regarding `CC[C@@H]1NC(=O)[C@H]([C@H](O)[C@H](C)C/C=C/I)N(C)C(=O)[C@H](C(C)C)N(C)C(=O)[C@H](CC(C)C)N(C)C(=O)[C@H](CC(C)C)N(C)C(=O)[C@@H](C)NC(=O)[C@H](C)NC(=O)[C@H](CC(C)C)N(C)C(=O)[C@H](C(C)C)NC(=O)[C@H](CC(C)C)N(C)C(=O)[C@@H](CO)N(C)C1=O` [Example 72, cyclosporin vinyl iodide] (cyclo([X2][Abu][dNMeS][NMeL]V[NMeL]A[dA][NMeL][NMeL][NMeV])), the “IC50 … of novel cyclosporin analogue compound” value came to 5 ng/mL.
On to `CC[C@@H]1NC(=O)[C@H]([C@H](O)[C@H](C)C/C=C/I)N(C)C(=O)[C@H](C(C)C)N(C)C(=O)[C@H](CC(C)C)N(C)C(=O)[C@H](CC(C)C)N(C)C(=O)[C@@H](C)NC(=O)[C@H](C)NC(=O)[C@H](CC(C)C)N(C)C(=O)[C@H](C(C)C)NC(=O)[C@H](CC(C)C)N(C)C(=O)CN(C)C1=O` [Example 9, trans-deuterated cyclosporin vinyl iodide], for which the “IC50 … of novel cyclosporin analogue compound” value turned out to be 7 ng/mL and the “potency in immunosuppression compared to cyclosporin A” value is “enhanced potency”.
On to `CC[C@@H]1NC(=O)[C@H]([C@H](O)[C@H](C)C/C=C/Cl)N(C)C(=O)[C@H](C(C)C)N(C)C(=O)[C@H](CC(C)C)N(C)C(=O)[C@H](CC(C)C)N(C)C(=O)[C@@H](C)NC(=O)[C@H](C)NC(=O)[C@H](CC(C)C)N(C)C(=O)[C@H](C(C)C)NC(=O)[C@H](CC(C)C)N(C)C(=O)[C@@H](CO)N(C)C1=O` [Example 71, cyclosporin vinyl chloride] (cyclo([X3][Abu][dNMeS][NMeL]V[NMeL]A[dA][NMeL][NMeL][NMeV])), for which the “IC50 … of novel cyclosporin analogue compound” value turned out to be 8 ng/mL.
With `CC[C@@H]1NC(=O)[C@H]([C@H](O)[C@H](C)C/C=C/Br)N(C)C(=O)[C@H](C(C)C)N(C)C(=O)[C@H](CC(C)C)N(C)C(=O)[C@H](CC(C)C)N(C)C(=O)[C@@H](C)NC(=O)[C@H](C)NC(=O)[C@H](CC(C)C)N(C)C(=O)[C@H](C(C)C)NC(=O)[C@H](CC(C)C)N(C)C(=O)CN(C)C1=O` [Example 19, trans-cyclosporin vinyl bromide], the “IC50 … of novel cyclosporin analogue compound” value is on record as 9 ng/mL.
The same measure, in the same setting: under `CCON=C/C=C/C[C@@H](C)[C@@H](O)[C@H]1C(=O)N[C@@H](CC)C(=O)N(C)CC(=O)N(C)[C@@H](CC(C)C)C(=O)N[C@@H](C(C)C)C(=O)N(C)[C@@H](CC(C)C)C(=O)N[C@@H](C)C(=O)N[C@H](C)C(=O)N(C)[C@@H](CC(C)C)C(=O)N(C)[C@@H](CC(C)C)C(=O)N(C)[C@@H](C(C)C)C(=O)N1C` [Example 58, cyclosporin oxime] stands 42 ng/mL; under `C=C/C=C/C[C@@H](C)[C@@H](O)[C@H]1C(=O)N[C@@H](CC)C(=O)N(C)[C@H](CO)C(=O)N(C)[C@@H](CC(C)C)C(=O)N[C@@H](C(C)C)C(=O)N(C)[C@@H](CC(C)C)C(=O)N[C@@H](C)C(=O)N[C@H](C)C(=O)N(C)[C@@H](CC(C)C)C(=O)N(C)[C@@H](CC(C)C)C(=O)N(C)[C@@H](C(C)C)C(=O)N1C` [Example 69, trans-cyclosporin diene-d2] (cyclo([X1][Abu][dNMeS][NMeL]V[NMeL]A[dA][NMeL][NMeL][NMeV])), 4 ng/mL.
Same read-out and setting: under `CC[C@@H]1NC(=O)[C@H]([C@H](O)[C@H](C)CC=CC(F)(F)F)N(C)C(=O)[C@H](C(C)C)N(C)C(=O)[C@H](CC(C)C)N(C)C(=O)[C@H](CC(C)C)N(C)C(=O)[C@@H](C)NC(=O)[C@H](C)NC(=O)[C@H](CC(C)C)N(C)C(=O)[C@H](C(C)C)NC(=O)[C@H](CC(C)C)N(C)C(=O)CN(C)C1=O` [Example 31, cyclosporin fluoride] stands 38 ng/mL.
On the same count and under the same terms, as for `CC[C@@H]1NC(=O)[C@H]([C@H](O)[C@H](C)CC=CCF)N(C)C(=O)[C@H](C(C)C)N(C)C(=O)[C@H](CC(C)C)N(C)C(=O)[C@H](CC(C)C)N(C)C(=O)[C@@H](C)NC(=O)[C@H](C)NC(=O)[C@H](CC(C)C)N(C)C(=O)[C@H](C(C)C)NC(=O)[C@H](CC(C)C)N(C)C(=O)CN(C)C1=O` [Example 34, cyclosporin allylic fluoride], the figure is 12 ng/mL.
Turning to `CC[C@@H]1NC(=O)[C@H]([C@H](O)[C@H](C)C/C=C/Cl)N(C)C(=O)[C@H](C(C)C)N(C)C(=O)[C@H](CC(C)C)N(C)C(=O)[C@H](CC(C)C)N(C)C(=O)[C@@H](C)NC(=O)[C@H](C)NC(=O)[C@H](CC(C)C)N(C)C(=O)[C@H](C(C)C)NC(=O)[C@H](CC(C)C)N(C)C(=O)CN(C)C1=O` [Example 11, trans-deuterated cyclosporin vinyl chloride], the “potency in immunosuppression compared to cyclosporin A” value was “enhanced potency”.
For the compound `CC[C@@H]1NC(=O)[C@H]([C@H](O)[C@H](C)C/C=C/I)N(C)C(=O)[C@H](C(C)C)N(C)C(=O)[C@H](CC(C)C)N(C)C(=O)[C@H](CC(C)C)N(C)C(=O)[C@@H](C)NC(=O)[C@H](C)NC(=O)[C@H](CC(C)C)N(C)C(=O)[C@H](C(C)C)NC(=O)[C@H](CC(C)C)N(C)C(=O)CN(C)C1=O` [Example 6, cyclosporin vinyl iodide], the “IC50 … of novel cyclosporin analogue compound” value is given as 11 ng/mL.
